Experimental data published in the NIST ThermoML archive (doi:10.1016/j.jct.2007.07.002).
Several values for one entry are separate records, joined by “and”; a condition that tells them apart may be missing. Equal entries are not always repeated.

Details: Gas, double Helmholtz acoustic resonator

N [ammonia]
Details | kinematic viscosity [m2/s] | speed of sound [m/s]
300 K, 223.53 kPa | 6.47e-06 | 431
300 K, 259.87 kPa | 5.47e-06 | 429.55
300 K, 329.51 kPa | 4.32e-06 | 428.07
300 K, 361.99 kPa | 3.95e-06 | 426.77
300 K, 447.86 kPa | 3.14e-06 | 424.67
300 K, 465.77 kPa | 3.02e-06 | 423.73
300 K, 568.68 kPa | 2.45e-06 | 421.02
300 K, 569.79 kPa | 2.45e-06 | 420.63
300 K, 676.75 kPa | 2.03e-06 | 417.61
300 K, 692.8 kPa | 1.98e-06 | 416.7
300 K, 802.37 kPa | 1.71e-06 | 413.01
300 K, 802.82 kPa | 1.7e-06 | 413.38
315 K, 250.83 kPa | 6.41e-06 | 441.42
315 K, 378.83 kPa | 4.19e-06 | 438.52
315 K, 506.43 kPa | 3.08e-06 | 435.46
315 K, 661.04 kPa | 2.34e-06 | 431.69
315 K, 791.02 kPa | 1.92e-06 | 428.35
315 K, 938.74 kPa | 1.59e-06 | 424.43
315 K, 1080.9 kPa | 1.36e-06 | 420.46
315 K, 1285 kPa | 1.13e-06 | 414.39
330 K, 308.27 kPa | 5.77e-06 | 450.9
330 K, 473.84 kPa | 3.68e-06 | 447.68
330 K, 664.29 kPa | 2.58e-06 | 443.84
330 K, 822.59 kPa | 2.06e-06 | 440.54
330 K, 977.41 kPa | 1.71e-06 | 437.21
330 K, 1142.1 kPa | 1.44e-06 | 433.54
330 K, 1294.8 kPa | 1.25e-06 | 430.01
330 K, 1480.5 kPa | 1.08e-06 | 425.54
330 K, 1640.8 kPa | 9.57e-07 | 421.5
330 K, 1792 kPa | 8.66e-07 | 417.52
330 K, 1945.8 kPa | 7.91e-07 | 413.28
345 K, 297.74 kPa | 6.5e-06 | 461.31
345 K, 504.54 kPa | 3.78e-06 | 457.91
345 K, 708.88 kPa | 2.67e-06 | 454.47
345 K, 914.14 kPa | 2.04e-06 | 450.88
345 K, 1123.2 kPa | 1.64e-06 | 447.09
345 K, 1332.1 kPa | 1.36e-06 | 443.17
345 K, 1537 kPa | 1.16e-06 | 439.19
345 K, 1744.6 kPa | 1e-06 | 435.01
345 K, 1955.1 kPa | 8.8e-07 | 430.58
345 K, 2315.6 kPa | 7.21e-07 | 422.55
345 K, 2530 kPa | 6.5e-07 | 417.46
345 K, 2769 kPa | 5.84e-07 | 411.45
360 K, 242.7 kPa | 8.74e-06 | 471.71
360 K, 453.28 kPa | 4.68e-06 | 468.86
360 K, 661.35 kPa | 3.16e-06 | 465.91
360 K, 865.15 kPa | 2.39e-06 | 462.91
360 K, 1069.7 kPa | 1.9e-06 | 459.84
360 K, 1277.8 kPa | 1.57e-06 | 456.62
360 K, 1481.2 kPa | 1.34e-06 | 453.38
360 K, 1690.7 kPa | 1.16e-06 | 449.97
360 K, 1894.8 kPa | 1.02e-06 | 446.53
360 K, 2277.4 kPa | 8.28e-07 | 439.83
360 K, 2480.7 kPa | 7.49e-07 | 436.1
360 K, 2738.8 kPa | 6.66e-07 | 431.2
360 K, 3050.5 kPa | 5.85e-07 | 424.97
360 K, 3365.4 kPa | 5.19e-07 | 418.3
375 K, 260.57 kPa | 1.01e-05 | 480.64
375 K, 483.31 kPa | 4.9e-06 | 478.26
375 K, 684.74 kPa | 3.42e-06 | 475.65
375 K, 897.66 kPa | 2.57e-06 | 473
375 K, 1130.7 kPa | 1.96e-06 | 469.93
375 K, 1341.7 kPa | 1.63e-06 | 467.14
375 K, 1583.8 kPa | 1.37e-06 | 463.89
375 K, 1793.4 kPa | 1.2e-06 | 461.01
375 K, 2026.3 kPa | 1.04e-06 | 457.7
375 K, 2290.4 kPa | 9.12e-07 | 453.87
375 K, 2599.9 kPa | 7.94e-07 | 449.23
375 K, 2933.1 kPa | 6.9e-07 | 444.04
375 K, 3140.5 kPa | 6.38e-07 | 440.69
375 K, 3379.2 kPa | 5.88e-07 | 436.74

FC1(F)C(F)(F)C(F)(F)C1(F)F [octafluorocyclobutane]
Details | kinematic viscosity [m2/s] | speed of sound
300 K, 160.13 kPa | 8.54e-07 | 109.85 m/s
300 K, 180.38 kPa | 7.62e-07 | 109.17 m/s
300 K, 209.45 kPa | 6.47e-07 | 108.13 m/s
300 K, 239.58 kPa | 5.55e-07 | 107.04 m/s
310 K, 167.11 kPa | 1.04e-06 | 111.91 m/s
310 K, 212.21 kPa | 6.65e-07 | 110.44 m/s
310 K, 259.63 kPa | 5.45e-07 | 108.88 m/s
310 K, 319.54 kPa | 4.4e-07 | 106.84 m/s
310 K, 359.99 kPa | 4.21e-07 | 105.47 m/s
315 K, 195.64 kPa | 7.57e-07 | 112.23 m/s
315 K, 234.75 kPa | 6.39e-07 | 111.1 m/s
315 K, 272.93 kPa | 5.38e-07 | 109.92 m/s
315 K, 312.27 kPa | 4.61e-07 | 108.66 m/s
315 K, 357.7 kPa | 3.99e-07 | 107.16 m/s
315 K, 410.27 kPa | 3.42e-07 | 105.34 m/s
320 K, 122.6 kPa | 1.12e-06 | 115.18 m/s
320 K, 172.92 kPa | 9.2e-07 | 113.83 m/s
320 K, 222.82 kPa | 6.6e-07 | 112.47 m/s
320 K, 274.43 kPa | 5.38e-07 | 111.03 m/s
320 K, 326.85 kPa | 4.48e-07 | 109.44 m/s
320 K, 380.03 kPa | 3.92e-07 | 107.76 m/s
320 K, 482.22 kPa | 2.95e-07 | 104.31 m/s
330 K, 117.49 kPa | 1.43e-06 | 117.54 m/s
330 K, 189.29 kPa | 8.81e-07 | 115.79 m/s
330 K, 215.35 kPa | 7.77e-07 | 115.12 m/s
330 K, 288.39 kPa | 5.63e-07 | 113.25 m/s
330 K, 290.78 kPa | 5.67e-07 | 113.11 m/s
330 K, 368.85 kPa | 4.3e-07 | 111.06 m/s
330 K, 376.53 kPa | 4.2e-07 | 110.78 m/s
330 K, 450.7 kPa | 3.45e-07 | 108.71 m/s
330 K, 465.61 kPa | 3.3e-07 | 108.18 m/s
330 K, 534.61 kPa | 2.83e-07 | 106.13 m/s
330 K, 536.09 kPa | 2.8e-07 | 106 m/s
330 K, 621.46 kPa | 2.37e-07 | 103.15 m/s and 103.25 m/s
345.04 K, 244.86 kPa | 7.3e-07 | 117.72 m/s
345.04 K, 347.35 kPa | 5.14e-07 | 115.42 m/s
345.04 K, 445.79 kPa | 3.86e-07 | 113.12 m/s
345.04 K, 553.32 kPa | 3.05e-07 | 110.35 m/s
345.04 K, 652.37 kPa | 2.52e-07 | 107.68 m/s
345.04 K, 772.66 kPa | 2.06e-07 | 104.17 m/s
345.04 K, 881.89 kPa | 1.76e-07 | 100.69 m/s
360 K, 216.1 kPa | 9.15e-07 | 121.47 m/s
360 K, 407.3 kPa | 4.74e-07 | 117.75 m/s
360 K, 609.73 kPa | 3.2e-07 | 113.46 m/s
360 K, 802.73 kPa | 2.19e-07 | 108.94 m/s
360 K, 1012.2 kPa | 1.68e-07 | 103.47 m/s
360 K, 1203.3 kPa | 1.35e-07 | 97.73 m/s
375 K, 183.85 kPa | 1.12e-06 | 124.97 m/s
375 K, 378.87 kPa | 5.53e-07 | 121.72 m/s
375 K, 568.99 kPa | 3.54e-07 | 118.34 m/s
375 K, 758.63 kPa | 2.59e-07 | 114.75 m/s
375 K, 960.1 kPa | 2.05e-07 | 110.61 m/s
375 K, 1188.2 kPa | 1.56e-07 | 105.48 m/s
375 K, 1402 kPa | 1.28e-07 | 100.08 m/s
375 K, 1620.4 kPa | 1.06e-07 | 93.75 m/s
